Data reported in US20250270513A1, “METHOD FOR PRODUCING CULTURED TISSUE, AND PREPARATION FOR EXTERNAL APPLICATION” (National University Corporation Ehime University, priority 2019, published 2025).

What was measured:
[1] = tested on: fibroblasts of the dermal tissue layer of three-dimensional cultured skin; test: Cell proportion per cell cycle by flow cytometry (FCM), PI staining (Test Example 1); format: cell-based, human
Procedure: • (5) Of the obtained three-dimensional cultured skin, a dermal tissue layer composed of fibroblasts was separated and DNA-stained with propidium iodide (PI). Next, the proportion of fibroblasts for each cell cycle was analyzed by FCM using Cycle TEST PLUS DNA Reagent Kit (manufactured by BD).

[2] = tested on: three-dimensional cultured skin (dermal tissue layer fibroblasts); test: Staining test of tissue sections of three-dimensional cultured skin (Test Example 1); format: cell-based, human
Source text: • (4) The obtained tissue sections of each three-dimensional cultured skin were stained with HE, EVG, HABP, K10, K5, Alcian blue, SMA and Ki67 by a conventional method. For Ki67 staining, a Ki67 antibody (manufactured by Novocastra Laboratories Ltd) and a secondary antibody (manufactured by Vector Laboratories) were used.

[3] = tested on: human normal skin keratinocytes on collagen gel containing normal human skin fibroblasts (NHDF); test: Three-dimensional cultured skin on a sugar-containing dermal cell structure (Test Example 1); format: cell-based
Procedure: Subsequently, about 1 mL of the gel obtained was poured into a transwell-collagen coated insert (catalog number: 3492, manufactured by Costar; pore size: 3.0 μm, surface area: 4.67 cm^2), which is a cell culture insert, and allowed to stand in an incubator for 5 minutes or more. 5 mL of DMEM containing 10 v/v % FCS and 1 v/v % ABAM (Antibiotics-Antimycotic solution, 100×, manufactured by ThermoFisher Scientific Inc.) in which normal human skin fibroblasts (NHDF, manufactured by Cambrex Corporation) were suspended at a cell density of 5×10^5 cells/mL was added to 29 mL of the gel solution I. About 3.5 mL of a gel solution containing the cells was added to the cell culture insert, and the mixture was allowed to stand in a 37° C. incubator for 30 minutes to gel.
• (2) Next, the collagen gel (layered dermal cell structure) containing NHDF was pre-cultured for 5 days using a DMEM medium containing 50 μg/ml ascorbic acid, 10 v/v % FCS, and 1 v/v % ABAM. Next, human normal skin keratinocytes suspended in MCDB medium were seeded on the collagen gel surface so as to be 1.28×10^5 cells/cm^2, and a medium obtained by mixing equal amounts of MCDB Type-II medium (Growth Medium 2 in JP-B2-3066624) and EGM was added to an external liquid of the cell culture insert and the inside of the insert, followed by culturing at 37° C. for 2 days.
• (3) The medium was replaced with a cornification medium (CM medium), and the cell culture insert was placed such that a porous membrane of the cell culture insert was located at a gas-liquid interface of the cornification medium. In this state, the cells were subjected to gas-liquid interface culture at 37° C. for 7 to 14 days to induce differentiation, thereby obtaining three-dimensional cultured skin. The medium was replaced every two days from the start of the culture.

[4] = tested on: wound with a diameter of 6 mm on the back of C57BL/6 mice; test: In vivo test of effect of trehalose on skin wound (Test Example 6); parameters: species or system mouse
Procedure: In order to verify an effect of trehalose on skin wounds, in vivo test using mice was performed. The method is shown below. • (1) 15 week old C57BL/6 mice were anesthetized, the back was extensively depilated, then the skin of the back was pinched and overlaid, and a wound with a diameter of 6 mm was prepared with a biopsy trepan. • (2) Wound mice were divided into 2 groups of 6 mice each, and 100 mg of an agent composed only of Vanicream (Pharmaceutical Specialties, INC) as a base was applied to a control group, and 100 mg of an agent composed of 10% by mass trehalose and Vanicream as a base was applied to a trehalose treatment group once a day. • (3) Images of each wound up to 9 days after wound formation and the area of each wound were recorded, respectively.

[5] = tested on: EREG, ARG2, CCL2, IL1RN, PGF, SPP1, VEGFA, AREG and DPT mRNA; test: qPCR of genes in monolayer fibroblasts, 24 hours (Test Example 3-3); format: cell-based, human; conditions: 100 mg/mL trehalose (Treha 100)
Procedure: In the same manner as in Test Example 3-2, NHDF was cultured in 1% FCS and 1% ABAM-containing DMEM medium containing 0, 30, or 100 mg/mL trehalose or hyaluronic acid oligosaccharide 4mer (HA4) (product code 11006, manufactured by Cosmo Bio Co., Ltd.) for 24 hours, and RNA was recovered from the cells. Also, as a control, RNA was recovered from fibroblasts before treatment (0 h in FIG. 9). The obtained sample was subjected to the same operation as in Test Example 3-2, and qPCR for genes EREG, ARG2, CCL2, IL1RN, PGF, SPP1, VEGFA, AREG and DPT was performed. GAPDH was used as a reference gene.

[6] = tested on: EREG, ARG2, CCL2, IL1RN, PGF, SPP1, VEGFA, DPT and FGF2 mRNA; test: qPCR of genes in fibroblasts in collagen gel, 3 days (Test Example 3-4); format: cell-based, human; conditions: 100 mg/mL trehalose (Treha 100)
Procedure: A collagen gel containing NHDF was prepared according to the method (1) of Test Example 1. The obtained collagen gel was cultured in DMEM medium containing 0 or 100 mg/mL trehalose, 1% FCS and 1% ABAM for 3 days, and RNA was recovered from the cells. The obtained sample was subjected to the same operation as in Test Example 3-2, and qPCR for genes EREG, ARG2, CCL2, IL1RN, PGF, SPP1, VEGFA, DPT and FGF2 was performed. GAPDH was used as a reference gene.

[7] = Trehalose concentration 100 mg/mL, n = 2, averages
[8] = culture to which trehalose was added

OC[C@H]1O[C@H](O[C@H]2O[C@H](CO)[C@@H](O)[C@H](O)[C@H]2O)[C@H](O)[C@@H](O)[C@@H]1O [trehalose, α, α-trehalose]
proportions of fibroblasts in S phase and G2 phase ([1]; 100 mg/mL vs 0 mg/mL trehalose): significantly increased
Proportion of cells in cell cycle, G1 [1, 7]: 62.5%
Proportion of cells in cell cycle, G2 [1, 7]: 14.0%
Proportion of cells in cell cycle, S [1, 7]: 15.3%
Ki67 positive cells in the dermal tissue layer ([2]; 0, 10, 100 mg/mL trehalose): increased as the concentration of trehalose increased
difference in staining pattern depending on the concentration of trehalose ([2]; HE, EVG, HABP, K10, K5, Alcian blue, SMA stains (all except Ki67), 0, 10, 100 mg/mL): no difference
area of the epithelial tissue layer formed ([3]; 10 mg/mL trehalose added to collagen gel containing fibroblasts, compared to no trehalose): slightly enlarged
area of the epithelial tissue layer formed ([3]; 100 mg/mL trehalose added to collagen gel containing fibroblasts): extended to the outer edge of the insert and further expanded to protrude to the outside of the insert
contraction of the collagen gel [3, 8]: not observed
wrinkles and rumples of the sheet-like epithelial tissue layer [3, 8]: without wrinkles and rumples
recovery of wounds compared to control group ([4]; 100 mg of agent of 10% by mass trehalose and Vanicream, applied once a day): significantly faster
day on which wound epithelialized ([4]; 10% by mass trehalose in Vanicream, once a day): 4 days
wound area ([4]; 10% by mass trehalose in Vanicream, once a day, after 1 day): remarkably reduced
difference between groups in wound area (two-way ANOVA, p<0.001) ([4]; each point of days 2 to 6, n=6 in each group): significant differences
mRNA expression levels of genes EREG, ARG2, CCL2, IL1RN, PGF, SPP1, VEGFA, AREG and DPT compared to vehicle [5]: remarkably increased
mRNA expression levels of genes EREG, ARG2, CCL2, ILIRN, PGF, SPP1, VEGFA, DPT and FGF2 compared to vehicle [6]: significantly increased
